Laboratory results taken from US10206937B2, “Boronic acid derivatives and therapeutic uses thereof” (Qpex Biopharma, Inc., priority 2014, dated 2019).

System: strains of Enterobacteriaceae producing various carbapenemases (class A, D and B; 104 strains)
Assay: Antibiotics potentiation by Compound 27 (MIC; meropenem, doripenem, ertapenem, cefepime)
Format: cell-based
Settings: + 27 = with Compound 27 at fixed 4 μg/ml

Measured: MIC

C[C@@H](O)[C@H]1C(=O)N2C(C(=O)O)=C(S[C@@H]3CN[C@H](CNS(N)(=O)=O)C3)[C@H](C)[C@H]12 [D]
Y (MIC of 1 μg/mL to 10 μg/mL): strain KP1082 Klebsiella pneumoniae (KPC-2, SHV-1) | strain KP1083 Klebsiella pneumoniae (KPC-3, SHV-1, TEM-1) | strain KP1088 Klebsiella pneumoniae (KPC-3, SHV-11, TEM-1) | strain KP1089 Klebsiella pneumonias (OXA-181, CTX-M-15, TEM, SHV) | strain KP1095 Klebsiella pneumoniae (KPC-2 TEM-1 SHV-1) | strain KP1096 Klebsiella pneumoniae (KPC-2 TEM-181 SHV-11) | strain KP1105 Klebsiella pneumoniae (KPC TEM SHV) | strain KP1173 Klebsiella pneumoniae (TEM-33(2br); CTX-M-15; IMP-1) | strain KP1180 Klebsiella pneumoniae (SHV-OSBL(2b), TEM-OSBL(2b); CTX-M-15; DHA-1; IMP-26) | strain KP1181 Klebsiella pneumoniae (SHV-OSBL(2b); CTX-M-15; IMP-26) | strain KP1184 Klebsiella pneumoniae (SHV-OSBL(2b); IMP-1) | strain KPM1123 Klebsiella pneumoniae (KPC-2 TEM SHV) | strain KPM1202 Klebsiella pneumoniae (KPC SHV TEM) | strain KPM1203 Klebsiella pneumoniae (KPC SHV TEM) | strain KPM1344 Klebsiella pneumoniae (VIM-1) | strain KX1017 Klebsiella oxytoca (KPC-2, OXA-2, SHV-30) | strain KX1018 Klebsiella oxytoca (KPC-2, SHV-40, OXY-1) | strain KX1019 Klebsiella oxytoca (KPC-2, OXA-2) | strain PM1027 Proteus mirabilis (VIM-5)
X (MIC of less than 1 μg/mL): strain KP1167 Klebsiella pneumoniae (SHV-12(2be); VIM-1)
Z (MIC of greater than 10 μg/mL): strain KP1081 Klebsiella pneumoniae (NDM-1, TEM-1, SHV-11, CMY-6, CTX-M-15) | strain KP1084 Klebsiella pneumoniae (KPC-3, SHV-11, TEM-1) | strain KP1086 Klebsiella pneumoniae (OXA-48, CTX-M-15, TEM, SHV) | strain KP1087 Klebsiella pneumoniae (KPC-2, CTX-M-15, SHV-11, TEM-1) | strain KP1097 Klebsiella pneumonias (IMP-1) | strain KP1098 Klebsiella pneumoniae (IMP-26) | strain KP1104 Klebsiella pneumoniae (KPC TEM) | strain KP1159 Klebsiella pneumoniae (SHV-1(2b); CTX-M-15; IMP-4) | strain KP1160 Klebsiella pneumoniae (SHV-28(2be); CTX-M-15; IMP-26) | strain KP1161 Klebsiella pneumoniae (NDM-1) | strain KP1164 Klebsiella pneumoniae (SHV-12(2be); VIM-1) | strain KP1165 Klebsiella pneumoniae (SHV-11(2b); CTX-M-15; VIM-27) | strain KP1166 Klebsiella pneumoniae (SHV-5(2be); VIM-26) | strain KP1169 Klebsiella pneumoniae (SHV-11(2b); VIM-1) | strain KP1170 Klebsiella pneumoniae (SHV-11(2b); CTX-M-15; NDM-1) | strain KP1172 Klebsiella pneumoniae (SHV-31(2be); DHA-1; VIM-1) | strain KP1174 Klebsiella pneumoniae (CTX-M-14; IMP-1) | strain KP1175 Klebsiella pneumoniae (SHV-OSBL(2b); VIM-1) | strain KP1177 Klebsiella pneumoniae (SHV-OSBL(2b), TEM-OSBL(2b); CTX-M-15; NDM-1) | strain KP1178 Klebsiella pneumoniae (SHV-OSBL(2b;) TEM-OSBL(2b); CTX-M-15; NDM-1) | strain KP1179 Klebsiella pneumoniae (SHV-12(2be), TEM-OSBL(2b); CTX-M-15; NDM-7) | strain KP1183 Klebsiella pneumoniae (SHV-OSBL(2b), TEM-OSBL(2b); CTX-M-15; NDM-1) | strain KP1185 Klebsiella pneumoniae (SHV-OSBL(2b), TEM-OSBL(2b); IMP-4) | strain KP1186 Klebsiella pneumoniae (CTX-M-15; NDM-1) | strain KP1187 Klebsiella pneumoniae (SHV-55(2be), TEM-OSBL(2b); CTX-M-15; NDM-1) | strain KP1188 Klebsiella pneumoniae (SHV-OSBL(2b); CTX-M-15; NDM-1) | strain KP1189 Klebsiella pneumoniae (TEM-OSBL(2b); CTX-M-15; CTX-M-27; NDM-1) | strain KPM1345 Klebsiella pneumoniae (VIM-1 SHV) | strain KPM1347 Klebsiella pneumoniae (NDM-1 SHV CTX-M-15) | strain PM1024 Proteus mirabilis (TEM-1(2b); CMY-16; VIM-1) | strain PM1026 Proteus mirabilis (DHA-1; IMP-26) | strain SM1023 Serratia marcescens (VIM-4)
